Several values for one entry are separate records, joined by “and”; a condition that tells them apart may be missing. Equal entries are not always repeated.
What was measured:
TTR = TTR (Homo sapiens, UniProt P02766); assay: TTR tetramer stability in diluted human plasma with urea, by immunoblotting; format: biochemical; set-up: from tissue; host or cells: human plasma; conditions: 4 M urea, versus DMSO control
Description: The TTR tetramer stability assay in the presence of urea and TTR ligands was performed according to a previously reported Western Blot procedure, with some modifications as follows. Aliquots of human plasma were diluted 8-fold in sodium phosphate buffer (NaP 40 mM, NaCl 150 mM pH 7.4) supplemented with 2 µM or 20 µM of each ligand. A plasma aliquot supplemented with DMSO was used as a negative control. After 2 h of incubation at 20 °C, an equal volume of 8 M urea in sodium phosphate buffer was added to obtain a final 4 M urea concentration and final ligand concentration of 1 µM or 10 µM. Incubation was prolonged for 18 h at 20 °C, followed by non-denaturing SDS-PAGE using Tris-Glycine buffers containing 0.025% of SDS in the running buffer and 0.2% of SDS in the Laemmli buffer. […] Blotting was accomplished with a Trans-Blot SD transfer apparatus (BIORAD), followed by incubation of nitrocellulose membranes with blocking buffer containing 5% skim milk overnight at 25 °C. Immunodetection of TTR monomers was performed by employing rabbit anti-human TTR polyclonal antibody (Dako) as a primary and goat anti-rabbit antibody labelled with DyLight 680 ([…]) as a secondary. Western Blot images were recorded by using ChemiDoc MP imaging system (BIORAD) and analysed with Image Lab software v. 5.1 (BIORAD). The experiment was performed in triplicate, and ligands stabilisation capability was evaluated as the relative intensity of the TTR monomer in each condition in comparison to the negative control. Statistical analyses by means of ANOVA and graphic representations were performed with GraphPad Prism.

[1] = Chromatographic Hydrophobicity Index (CHI); format: physicochemical
Excerpt: The assay is a chromatographic fast gradient reversed-phase method which allows to characterize the lipophilicity of compounds in high throughput screening regime at three different pH values (2.0; 7.4; 10.5). The so defined CHI is obtained from the gradient (buffer/Acetonitrile) retention time after calibrating the chromatographic system with a test mixture of ten known standard compounds. For most compounds, CHI is between 0 and 100 and it approximates the percentage (by volume) of acetonitrile required to achieve an equal distribution of compound between the mobile and the lipophilic stationary phase of a C18 chromatographic column. Compounds that are not retained on the column are assigned to a CHI value < 0, which means very low lipophilicity. For highly lipophilic compounds, which are strongly retained by the column, a CHI value of >100 is assigned. For any value in between, the actual CHI value is calculated based on the calibration line of the reference compounds [49].

[2] = system: SH-SY5Y neuroblastoma human cell line; assay: Cytotoxicity in SH-SY5Y cells (ATP viability assay); format: cell-based; conditions: 48 h
Description: The neuroblastoma cell line SHSY-5Y (ATCC CRL2266) was cultured in EMEM ATCC medium supplemented with 10% FBS (Euroclone CAT No. ECS0180D), 100 units/mL penicillin, and 100 ug/mL streptomycin sulphate (Euroclone CAT No. ECB3001). Cells were grown at 37 °C in an atmosphere of 5% CO2 and plated at 10,000 cells/well in a 96-well plate (Corning Cat. N. 3610). The compounds were dissolved at a concentration of 10 mM in DMSO. Cells were stimulated for 48 h at 37 °C with serial dilutions of the compounds at the following concentrations: 0.1, 1, 10, 50, 100, and 200 μM and dispensed with an HP Dispenser (Tecan), as triplicates for each concentration. DMSO normalisation at 1.5% was performed in each well.
Cell viability was evaluated by measuring ATP levels using CellTiter Glo (Promega Cat.n. G7570) according to manufacturer’s instructions.

[3] = Kinetic solubility in PBS; format: physicochemical; conditions: Phosphate Buffered Saline (PBS), aqueous buffer, kinetic from dmso stock, PBS pH 7.4, 1% DMSO
Description: (§1) The assay combines solubility and a non-cell-based Blood Brain Barrier permeability assay (Parallel Artificial Membrane Permeation Assay; PAMPA-BBB) into a single workflow in which a portion of the filtrate from the Solubility filter plate is added to the donor compartment of the MultiScreen filter plate for the PAMPA-BBB analysis. […] Solutions were filtered into a 96-well collection plate using vacuum filtration and then analysed by UV/Vis spectroscopy. The relative solubility was then calculated using the sum of the recorded values as compared to a standard calibration curve. […] PAMPA-BBB determination was carried out in a 96-well MultiScreen Permeability plate and the ability of a compound to diffuse from a Donor to an Acceptor compartment separated by a Porcine Brain Lipid Extract (PBLE) dissolved in dodecane (20 mg/mL) layer on a PVDF membrane support was measured. The assay was performed in duplicate in PBS at pH 7.4 and the analysis is carried out by UV/Vis spectroscopy.

[4] = Blood-brain barrier permeability (PAMPA-BBB); format: in vitro ADME; conditions: for Papp: PBS pH 7.4, read-out: BBB-Pe; for CNS Class: classified by Pe; for permeability (Pe) times higher compared to tolcapone: relative to tolcapone
Description: as §1
The compounds are classified into 2 types: CNS+ compounds that can cross the BBB and CNS- compounds that cannot according to the Pe values (BBB−, Pe < 2 × 10^−6 cm/s; BBB +/−, 2 × 10^−6 cm/s < Pe < 4 × 10^−6 cm/s; BBB+, Pe > 4 × 10^−6 cm/s).
Membrane retention is also evaluated according to Equation (1), (1) 1−Rm=CAccVAcc+CDonorVDonor/Sol×VDonor where Rm is the membrane retention factor. 1 − Rm between 1.2 and 0.8 is considered fully acceptable for the reliability of the results.

COc1cc(C(=O)c2ccc(C)cc2)cc([N+](=O)[O-])c1O [3-OMT, 3-O-methyltolcapone]
relative abundance of TTR monomer (TTR; ligand 1 µM): 14% and 14.1 ± 1.8% | relative abundance of TTR monomer (TTR; ligand 10 µM): 9.4 ± 1.5% | CHI (pH 2.0) [1]: 89.2 | CHI (pH 7.4) [1]: 50.2 | CHI (pH 10.5) [1]: 46.0 | EC50 [2]: 226.3 ± 1.3 µM | solubility [3]: > 500 µM | 1-Rm (membrane retention) [4]: 0.9 | Papp [4]: 14.4 ×10⁻⁶ cm/s | CNS Class [4]: CNS+ (BBB+, Pe > 4 × 10^−6 cm/s) | permeability (Pe) times higher compared to tolcapone [4]: 2.5 times

COc1cc(C(=O)c2cc(C)cc(C)c2)cc([N+](=O)[O-])c1O [Compound 1, (4-Hydroxy-3-methoxy-5-nitrophenyl)-1-(3,5-dimethylphenyl)methanone]
relative abundance of TTR monomer (TTR; ligand 1 µM): 17% and 17.2 ± 2.1% | relative abundance of TTR monomer (TTR; ligand 10 µM): 9.5 ± 2.8% | CHI (pH 2.0) [1]: 97.8 | CHI (pH 7.4) [1]: 55.5 | CHI (pH 10.5) [1]: 51.7 | EC50 [2]: 172 ± 5 µM | solubility [3]: > 500 µM | 1-Rm (membrane retention) [4]: 0.9 | Papp [4]: 15.3 ×10⁻⁶ cm/s | CNS Class [4]: CNS+ (BBB+, Pe > 4 × 10^−6 cm/s) | permeability (Pe) times higher compared to tolcapone [4]: 2.5 times

COc1cc(C(=O)c2ccc(C)cc2C)cc([N+](=O)[O-])c1O [Compound 2, (4-Hydroxy-3-methoxy-5-nitrophenyl)-1-(2,4-dimethylphenyl)methanone]
relative abundance of TTR monomer (TTR; ligand 1 µM): 7% and 7.5 ± 0.4% | relative abundance of TTR monomer (TTR; ligand 10 µM): 9.2 ± 1.5% | CHI (pH 2.0) [1]: 96.1 | CHI (pH 7.4) [1]: 53.8 | CHI (pH 10.5) [1]: 50.2 | EC50 [2]: 174 ± 3.7 µM | solubility [3]: > 500 µM | 1-Rm (membrane retention) [4]: 1.0 | Papp [4]: 13.5 ×10⁻⁶ cm/s | CNS Class [4]: CNS+ (BBB+, Pe > 4 × 10^−6 cm/s) | permeability (Pe) times higher compared to tolcapone [4]: 2.5 times
